From patent US9988371B2, “Benzimidazole analogues and related methods” (The Arizona Board of Regents, on Behalf of the University …, priority 2014, dated 2018)

Key:
[1] = system: Ba/F3 cells transfected by RET/PTC3 (NCOA4-RET); test: IL-3-independent proliferation of Ba/F3 RET/PTC3 cells; assay type: cell-based, murine; conditions: Mus musculus, BaF3
Experimental: FIG. 6: Activity of Pz-1 on NCOA4-RET oncogene-driven IL-3-independent proliferation of murine Ba/F3 cells. […] Ba/F3 and Ba/F3 NCOA4-RET cells were incubated with vehicle (NT) or the indicated concentration of Pz-1 in complete medium and counted at different time points. Data are the mean±SD of one experiment performed in triplicate. Murine interleukin-3 (IL-3) dependent pro-B Ba/F3 cells were from ATCC. Ba/F3 cells stably expressing NCOA4-RET (RET/PTC3) protein were generated by transfecting long isoform (RET-51) of NCOA4-RET by electroporation. Parental and Ba/F3-NCOA4-RET cells were cultured in RPMI 1640 with 10% FBS; parental cells required also 10 ng/ml IL-3. IC50 doses (with Confidence Intervals) are indicated.
Nthy-ory-3-1 and TTcells were seeded in 60-mm dishes. Cells were kept in 2% (Nthy-ori-3-1) or 10% (TT) fetal calf serum. One day after plating, different concentrations of Pz-1 or vehicle were added to the medium and changed every 2-3 days. Cells were counted every 2-3 days. […] Parental and RET/PTC-expressing Ba/F3 were kept in 10% fetal calf serum in 6-multi wells and counted every day for 4 consecutive days, changing media every 2 days. […] IC50 doses were calculated through a curve fitting analysis from the last day of growth curves using the PRISM software program (Graphpad Software Inc). […]

[2] = system: intracellular signaling (SHC, MAPK, p70S6K and S6RP); test: In vivo target inhibition, RET phosphorylation and signaling in HRAS/G12V-induced tumors; design: species or system nude mice; conditions: 48 hr, 1.0 or 3.0 mg/kg daily
Experimental: FIG. 9: Photographs of blots showing effects of Pz-1 on cellular phosphorylation events in tumors induced in nude mice (from FIG. 8) by injection of NIH3T3 fibroblasts transformed by RET/C634Y or HRAS/G12V. […] Some of the vehicle-treated tumors, at the end of the tumor growth experiment described in FIG. 8, were treated for 48 hr with different doses of Pz-1 (TR) or left untreated (NT). At the end of the treatment, 50 μg of tumor protein lysates were subjected to immunoblotting with anti-phospho-Y1062 (αp1062) and anti-phospho-905 (αpY905) RET antibodies, anti-phospho-MAPK (αpMAPK, T302/Y304), anti-phospho-SHC (αpSHC, Y317), anti-phospho-p70S6K (αpp70S6K, T389), anti-phospho-S6RP (αpS6RP, S235/S236), and anti-phospho-VEGFR2 (αpVEGFR2 pY1175) antibodies. The blots were normalized using anti-RET (αRET), anti-SHC (αSHC), anti-MAPK (αMAPK), anti-p70S6K (αp70S6K), anti-S6RP (αS6RP) or anti-VEGFR2 (αVEGFR2) antibodies.
Some of the vehicle-treated tumors, at the end of the tumor growth experiment reported in FIG. 8, were treated for 48 hr with different doses of Pz-1 (1.0 or 3.0 mg/kg daily) or left untreated. […]

With Cn1cc(-c2ccc3c(c2)ncn3-c2ccc(CC(=O)Nc3cc(C(C)(C)C)on3)cc2)cn1 [Pz-1, N-(5-(tert-butyl)isoxazol-3-yl)-2-(4-(5-(1-methyl-1H-pyrazol-4-yl)-1H-benzo[d]imidazol-1-yl)phenyl)acetamide] the IC50 [1] was 0.34 nM and the “RET phosphorylation and intracellular signaling (SHC, MAPK, p70S6K and S6RP) in tumors” value [2] was “only in RET/C634Y-induced tumors”.
